Tests used:
[1] = Blood ketone levels by Abbott blood test strip after D-BHB oral drink; type: in vivo, human
From the text: FIG. 8 is a graphical illustration of D-BHB exogenous ketone blood levels. FIG. 8 details rapid ketosis confirmed by Abbott blood test strip after 15 g D-BHB with palatability agent administered by oral drink. Blood ketone levels document rise from 0.1 mmol/L to 2.7 mmol/L. By supplementing an individual with exogenous ketone preparations incorporating the natural D-Beta-HydroxyButyric Acid (D-BHB) optionally combined with a palatability agent, internal body ketone levels rapidly rise when directly compared with non-supplementing individuals. The ketone body D-BHB is first and foremost an energy source, which is directly and preferentially metabolized by the brain. D-BHB is also active as a signaling mechanism and neuro-inflammation reduction agent, resulting in broad and beneficial mental health related benefits.
FIG. 9 is a graphical illustration of D-BHB exogenous ketone blood levels. FIG. 9 details rapid ketosis within 45 minutes confirmed by Abbott blood test strip after 10 g D-BHB with palatability agent administered by oral drink. Blood ketone levels document rise from 0.2 mmol/L to 1.8 mmol/L and 0.6 mmol/L to 1.9 mmol/L in a variety of test subjects. FIG. 9 reinforces the fact that supplementation by utilizing free D only BetaHydroxyButyric Acid without ketone salt or ketone ester is a reliable, reproducible method and system for rapid ketone level increase for mental health protection and maintenance. While amounts of free D only BetaHydroxyButyric Acid taken for mental health anti-depression effects may vary, it is an anticipated preferred embodiment that levels are between 5 and 30 grams of D only BetaHydroxyButyric Acid taken as needed for optimum anti-depression effects. Alternate embodiments may include lower or higher amounts, however, experimental evidence has confirmed optimal administration in this range.

[2] = Continuous glucose monitoring (Abbot Libre CGM) with carbohydrate challenge; type: in vivo, human; conditions: 10 g given 45 minutes before 50 g carbohydrate ingestion; compared with unsupplemented ingestion
From the text: FIG. 10 is a graphical illustration of continuous monitoring of body glucose levels. FIG. 10 depicts continuous glucose monitoring levels with carbohydrate challenge documented by Abbot Libre Continuous Glucose Monitoring (CGM) device. In this illustrative embodiment, glucose levels from a 50 g carbohydrate ingestion are depicted unaided by free D-BetaHydroxyButyric Acid on the left and repeated the following day with two 50 g carbohydrate ingestions accompanied by 10 g free D-BetaHydroxyButyric Acid administered 45 minutes before the carbohydrate insult. The data is noteworthy in that while the equivalent amount of identical (nacho chip platter) carbohydrates were consumed, the rapid glucose spike depicted in the unsupplemented ingestion is not found with 10 g D-BetaHydroxyButyric Acid accompaniment. […] As free D-BetaHydroxyButyric Acid can lower glucose while rapidly increasing ketone levels, it is believed that obtaining high ketones while lowering glucose will yield additional anti-depression benefits to high glucose sensitive individuals suffering from depression.

[3] = Preliminary data on anxiety and depression after D-BetaHydroxyButyric Acid administration; type: in vivo, human; conditions: individuals with mild to moderate depression, given in the absence of a salt or ester
From the text: Moreover, dietary interventions for ketogenic diet treatment of bipolar disorder are yielding compelling results. The administration of the natural form of D-BetaHydroxyButyric Acid as an exogenous compound has rapid onset and direct benefits to brain bioenergenics. […] The claimed form of D-BetaHydroxyButyric Acid is bioidentical to the natural form of ketone generated endogenously and chemically distinguishable from the artificial ‘ketone salt’ and synthetic ‘ketone ester’. This application discloses two primary embodiments for the treatment of psychiatric depressive disorders: the use of bioidentical or ‘free D-BetaHydroxyButyric Acid’ alone as well as in combination with Psilocybin derived pharmaceuticals.

[4] = Continuous Ketone Meter (CKM) monitoring of body ketone levels and deep sleep; type: in vivo, human; conditions: 5 grams consumed 45 minutes prior to bedtime
From the text: FIG. 11 is a graphical illustration of continuous monitoring of body ketone levels resulting in improved deep sleep time due to enhanced D-BHB levels according to the claimed invention. It is noteworthy that consumption of even small amounts of free D-BetaHydroxyButyric Acid can give rise to therapeutic ketosis levels as measured by Continuous Ketone Meter (CKM). […] While free D-BetaHydroxyButyric Acid is not a sedative, even small amounts can greatly improve deep sleep quantity and quality. It is an intended and foreseeable embodiment application to increase deep sleep with free D-BetaHydroxyButyric Acid with the aim of improving mental health and anti-depression resiliency.

[5] = Phase 2b clinical trial reported by Compass Pathways; cited from earlier work
[6] = previously known exogenous ketone compounds, from literature; cited from earlier work

Which results are given for `CC(O)CC(=O)O` [D-BHB, D-Beta-HydroxyButyric Acid]?
Time to rapid ketosis ([1]; 10 g D-BHB with palatability agent): ≤ 45 min; Blood ketone level after administration ([1]; 10 g D-BHB with palatability agent, test subject rising from 0.2 mmol/L): 1.8 mmol/L; Blood ketone level after administration ([1]; 10 g D-BHB with palatability agent, test subject rising from 0.6 mmol/L): 1.9 mmol/L; Blood ketone level after administration ([1]; 15 g D-BHB with palatability agent, rise from 0.1 mmol/L): 2.7 mmol/L; Rapid glucose spike after carbohydrate ingestion [2]: not found; Reduction of anxiety and depression [3]: often benefit; Deep sleep quantity [4]: enhance the quantity of deep sleep obtained; Increase in body ketone level ([4]; CKM): 1.5 mmol/L

With `CN(C)CCc1c[nH]c2cccc(OP(=O)(O)O)c12` [Comp360] as the compound, how does the “Outcome in treatment-resistant depression” value [5] read?
Its value is “promising results”.

Which “Ketone increase (blood level)” value [6] does the source give for `C[C@@H](O)CCOC(=O)C[C@@H](C)O` [ketone ester, (R)-3-hydroxybutyl (R)-3-hydroxybutyrate] here?
Its value is “higher ketone level response”.

From US20240216310A1, “Rapid Onset Therapeutic Anti-Depression Ketosis Enabled by D-BetaHydroxyButyric Acid Systems, Methods and Compounds for Psilocybin co-administration” (American Ketone Therapeutics LLC, priority 2022, published 2024)
